Test results published in patent publication US20220257621A1, “CANCER CELL PROLIFERATION SUPPRESSION AGENT AND COMPOSITION FOR SUPPRESSING PROLIFERATION OF CANCER CELLS” (SHOWA DENKO K.K., priority 2019, published 2022).

Tests used:
[1] = test system: CYP1A1 gene; test: Suppression of CYP1A1 gene expression induced by atmospheric dust (quantitative real-time PCR); assay type: cell-based, human; conditions: NHEK; sample 0.001% by mass 24 h, then atmospheric dust (NIST 1648a) 500 μg/mL 48 h; standardized to GAPDH; control without dust = 1; dust + water = 4.11
Protocol: (§1) The effect of the inositol derivative on suppressing the expression of a CYP1A1 gene and a CYP1B1 gene in normal human epidermal keratinocytes (NHEK, manufactured by KURABO INDUSTRIES LTD.) was measured under the following conditions.
(§2) The NHEK cells were seeded in a HuMedia KG2 medium manufactured by KURABO INDUSTRIES LTD. at the seeding density of 10000 cells/cm^2, and cultured for 24 hours under the conditions of 37° C. and 5% CO2. […] Using this cDNA as a template, the expression levels of the CYP1A1 gene and the CYP1B1 gene were quantitatively determined by quantitative real-time PCR using primers (QuantiTect Primer Assays, manufactured by QIAGEN) specific to the CYP1A1 gene and the CYP1B1 gene. As an internal standard gene, the expression level of a GAPDH gene, which is a housekeeping gene in which expression fluctuation due to the addition of atmospheric dust is not shown, was quantitatively determined (primer used: Perfect Real Time Primer, manufactured by Takara Bio Inc.), and the expression levels of the CYP1A1 gene and the CYP1B1 gene were standardized based on the expression level of GAPDH. […]

[2] = test system: cell line derived from Lewis lung carcinoma (LLC); test: Effect of suppressing invasion of cancer cells (CytoSelect invasion assay kit); assay type: cell-based; conditions: sample 0.001% by mass 24 h, then atmospheric dust 500 μg/mL 6 h + 18 h, fluorescence relative to control without dust = 1, dust + water = 1.67
Protocol: The effect of the inositol derivative on suppressing the invasion of cancer in a cell line derived from Lewis lung carcinoma (LLC, JCRB Cell Bank) was measured under the following conditions. A CytoSelect invasion assay kit manufactured by Cell Biolabs, Inc. was used for a test. The LLC cells were seeded in a chamber plate for invasion tests attached to the above-mentioned invasion assay kit so that the concentration was 100000 cells/mL using a culture medium in which a Ham F10 medium and an L15 medium (both manufactured by Sigma-Aldrich) were mixed at the ratio of 3:7 (volume ratio), and cultured for 24 hours under the conditions of 37° C. and 5% CO2. Next, an aqueous solution of the inositol derivative or an aqueous solution of myo-inositol was added to the culture medium so that the final concentration of the inositol derivative or myo-inositol was 0.001% by mass, or water (pure water) was added to the culture medium, and culturing was further performed for 24 hours. […] Thereafter, the cells were stained using the above-mentioned invasion assay kit, and the fluorescence intensity at an excitation wavelength of 480 nm/an absorption wavelength of 570 nm was measured with a microplate reader i-Control (manufactured by Tecan Group Ltd.). […]

[3] = test system: ARNT gene; test: Suppression of ARNT gene expression induced by atmospheric dust (quantitative real-time PCR); assay type: cell-based, human; conditions: NHEK; sample 0.001% by mass 24 h, then atmospheric dust (NIST 1648a) 500 μg/mL 48 h; standardized to GAPDH; control without dust = 1; dust + water = 1.74
Protocol: The effect of the inositol derivative on suppressing the expression of an ARNT gene in normal human epidermal keratinocytes (NHEK, manufactured by KURABO INDUSTRIES LTD.) was measured under the following conditions. The NHEK cells were seeded in a HuMedia KG2 medium manufactured by KURABO INDUSTRIES LTD. at the seeding density of 10000 cells/cm^2, and cultured for 24 hours under the conditions of 37° C. and 5% CO2. Next, an aqueous solution of the inositol derivative or an aqueous solution of myo-inositol was added to the culture medium so that the final concentration of the inositol derivative or myo-inositol was 0.001% by mass, or water (pure water) was added to the culture medium, and culturing was further performed for 24 hours. […] Using this cDNA as a template, the expression level of the ARNT gene was quantitatively determined by quantitative real-time PCR using a primer specific to the ARNT gene (Perfect Real Time Primer, manufactured by Takara Bio Inc.). As an internal standard gene, the expression level of GAPDH was quantitatively determined (primer used: Perfect Real Time Primer, manufactured by Takara Bio Inc.), and the expression level of the ARNT gene was standardized based on the expression level of GAPDH. […]

[4] = test system: CYP1B1 gene; test: Suppression of CYP1B1 gene expression induced by atmospheric dust (quantitative real-time PCR); assay type: cell-based, human; conditions: NHEK; sample 0.001% by mass 24 h, then atmospheric dust (NIST 1648a) 500 μg/mL 48 h; standardized to GAPDH; control without dust = 1; dust + water = 4.30
Protocol: as §1, §2

Relative gene expression level CYP1A1 [1]: 3.10 | Relative gene expression level CYP1B1 [4]: 1.08
Compound: O[C@H]1[C@H](O)[C@@H](O)[C@H](O)[C@@H](O)[C@H]1O [myo-Inositol, myo-inositol]
Relative cell invasion [2]: 1.53 | Relative gene expression level ARNT [3]: 1.85
